Data taken from US5614533A, “Substituted pipecolinic acid derivatives as HIV protease inhibitors” (Bio-Mega/Boehringer Ingelheim Research, Inc., priority 1994, dated 1997).

How the values were obtained:
[1] = target: T1, HIV protease (Human immunodeficiency virus type 1 group M subtype B, UniProt P04585); assay: Recombinant HIV Protease HPLC Assay; format: biochemical; details: 37°, 30 min, pH 5.5
T1 construct: HIV protease was expressed in E. coli; made in house; host or cells: E. coli (plasmid pBRT1 prt+)
Text: The procedure is based on the capacity of the test compound to inhibit enzymatic cleavage by HIV protease of a decapeptide (the substrate) having an amino acid sequence which includes a known HIV protease cleavage site of a HIV polyprotein; see H. G. Krausslich et al., Proc. Natl. Acad. Sci. USA, 86, 807 (1989). Details of this assay together with the results obtained for exemplified compounds of formula 1 are described in the examples hereinafter.
Recombinant HIV Protease HPLC Assay:
Enzyme: HIV protease was expressed in E. coli {construct pBRT1 prt^+, see W. G. Farmerie et al., Science, 236, 305 (1987)}, according to the following protocol:
E. coli cells containing the pBRT1 prt^+ plasmid were used to inoculate a seed culture media composed of Luria-Bertani Broth containing 100 μg/mL of ampicillin. Flasks were incubated at 37° under agitation for 17 h. Production flasks containing sterile M9 broth, supplemented with 100 μg/mL of ampicillin, were inoculated at a level of 1% (v/v) using the seed culture described above. Total volume in each production flask was 500 mL in a 2 L Erlenmeyer flask. Flasks were incubated at 37° under agitation until a cell concentration corresponding to an optical density ([…]) of 0.6 was reached (no dilution). This time span was routinely 3-4 h. Flasks were then supplemented with 5 mM isopropylthiogalactoside (IPTG, Research Organics, Cleveland, Ohio, USA) and incubation was continued until the cell concentration reached an optical density of 0.2 at 16-fold dilution. Flasks were then supplemented with 1 mM phenylmethylsulfonyl fluoride (PMSF) and rapidly chilled to 4°. The bacterial cells were recovered by centrifugation at 4°. The wet pellet was stored at -70°.
All steps below were performed at 4° unless otherwise indicated. Thawed cells were mixed with buffer A {50 mM tris(hydroxymethyl)[…] HCl (Tris-HCl, pH 7.4); 0.6 mM ethylenediaminetetraacetic acid (EDTA); 0.375M NaCl, 0.2% Nonidet P-40® (BDH Chemicals Ltd., Poole, UK); 1 mM PMSF}, at a ratio of one part cells to nine parts buffer A. Diatomaceous earth (Celite 545®, John Manville, Lompoc, Calif. USA) was added at a ratio of two parts to one part of wet cell weight. The resulting slurry was homogenized at high speed (ca. 20,000 rpm) on a Waring® industrial blender for 8×15 sec. pulses. Cell debris/Celite® was collected by centrifugation and the resulting pellet was extracted with 4.5 parts of buffer A to one part wet solids using the homogenization procedure described above. Supernatants from both homogenization steps were combined and soluble protein was precipitated by the addition of solid (NH4)2 SO4 to yield a final concentration of 75% saturation. This mixture was agitated for 60 min and the precipitate was recovered by centrifugation. The resulting pellet was suspended in buffer B {50 mM Tris-HCl, pH 8; 30 mM NaCl; 1 mM DL-dithiothreitol (DTT); 1 mM EDTA; 1 mM PMSF; 10% glycerol}, and dialyzed for 18 h against the same buffer.
An aliquot of the dialyzed extract containing 150 mg of the protein was loaded onto a Sephadex A25® anion exchange column (Pharmacia, Uppsala, Sweden) with bed dimensions of 70 cm length and 2.5 cm diameter. The sample was eluted isocratically with buffer B at a linear flow rate of 10 cm/h. Fractions containing HIV protease activity (see below for assay description) were combined, and soluble protein was precipitated by the addition of saturated aqueous (NH4)2 SO4 to yield a total (NH4)2 SO4 concentration of 85% saturation. Precipitated protein was removed by centrifugation and the resulting pellet was dissolved in buffer C {50 mM 2-(4-morpholino)ethanesulfonic acid (MES), pH 5.5; 150 mM NaCl; 1 mM DTT; 1 mM EDTA; 10% glycerol}. This preparation was dialyzed for 18 h against buffer C, and then frozen at -70°. All crude extracts were purified by chromatography in aliquots containing 150 mg of protein in the same manner as described above. […]

[2] = test system: HIV (H9/HTLV-IIIB) in C8166 cells; assay: plaque assay: inhibition of syncytia formation in HIV-infected C8166 cells; format: cell-based; details: Human immunodeficiency virus 1, IIIB, Table IV, 72 h, 50% inhibition of syncytia formation
Text: Typical of such procedures are those described by S. Harada and N. Yamamoto, Jpn. J. Cancer Res. (Gann), 76, 432 (1985), and S. Harada et al., Science, 229, 563 (1985). An assay based on the latter procedures is described in the examples hereinafter.
The following protocol, used for screening antiviral effects of the compounds of formula 1, is adapted from a plaque assay utilizing HTLV-I transformed cells, previously reported by Harada et al., supra. HTLV-I transformed cells are used because of the rapidity with which HIV will replicate in the cells.
1. The test compound is dissolved in dimethylsulfoxide to a concentration of 5 mg/mL. The resultant solution can be stored at 4° until use.
2. The resultant solution is diluted in RPMI 1640 (Gibco Laboratories, St. Lawrence, Mass., USA) to four times (4×) the final concentration which is to be tested. Once diluted in RPMI 1640, the solution is used in the cell culture assay within 4 h.
3. The 4× solution (50 μL) is added to triplicate wells of a 96 well flat bottomed microtiter plate. RPMI (50 μL) also is added to control wells.
4. C8166 cells (5×10^4) in 50 μL of HEPES-buffered RPMI 1640 (pH=7.2), 10% heat inactivated fetal calf serum (FCS), […] gentamicin (complete media) are added to all wells.
5. Fifty times TCID50 of H9/HTLV-IIIB stock (stored in liquid nitrogen as cell culture supernatant in 50% FCS) in 100 μL of complete media is added to all wells. Infectious titer of virus stocks are as previously determined by end point dilution on C8166 cells. Titer of stocks are stable for 6-12 months when stored at -193°.
6. Microtiter plates are then placed on level shelves of a 37°, 5% CO2 humidified incubator for 72 h.
7. Plates are then removed and centers of syncytia are counted in each well by low power phase contrast light microscopy. […] Control wells should have between 25 and 75 centers of syncytia per well.
8. Percent inhibition of syncytia formation is calculated by the formula: [formula]
The concentration of the test compound which causes a 50% inhibition of syncytia formation, i.e. the EC50, is determined by using the technique of serial dilution of the working solution at step 3 and by using non-linear regression analysis (SAS® program) to graphically plot the observed percent inhibition of syncytia formation against the various concentrations of the test compound.

Row | Compound | IC50 ([1]; Table IV) | EC50 [2] | IC50 ([1]; Table VII)
1 | CC(C)(C)NC(=O)[C@@H]1C[C@H](Sc2ccccc2)CCN1C[C@@H](O)[C@H](Cc1ccc(F)cc1)NC(=O)OCc1ccccc1 [Table IV, entry 1, N-tert-butyl-1-{3(S)-(benzyloxycarbonylamino)-2(R)-hydroxy-4-(4-fluorophenyl)butyl}-4(R)-(phenylthio)piperidine-2(S)-carboxamide] | 9.5 nM | – | –
2 | CC(C)(C)NC(=O)[C@@H]1C[C@H](c2ccccc2)CCN1C[C@@H](O)[C@H](Cc1ccccc1)NC(=O)OCc1ccccc1 [Table IV, entry 2, N-tert-butyl-1-{3(S)-(benzyloxycarbonylamino)-2(R)-hydroxy-4-phenylbutyl}-4(R)-phenylpiperidine-2(S)-carboxamide] | 400 nM | – | –
3 | CC(C)(C)NC(=O)[C@@H]1C[C@H](Cc2ccccc2)CCN1C[C@@H](O)[C@H](Cc1ccccc1)NC(=O)OCc1ccccc1 [Table IV, entry 3, N-tert-butyl-1-{3(S)-(benzyloxycarbonylamino)-2(R)-hydroxy-4-phenylbutyl}-4(R)-benzylpiperidine-2(S)-carboxamide] | 460 nM | – | –
4 | CC(C)(C)NC(=O)[C@@H]1C[C@H](S(=O)(=O)c2ccccc2)CCN1C[C@@H](O)[C@H](Cc1ccccc1)NC(=O)OCc1ccccc1 [Table IV, entry 4, N-tert-butyl-1-{3(S)-(benzyloxycarbonylamino)-2(R)-hydroxy-4-phenylbutyl}-4(R)-(phenylsulfonyl)piperidine-2(S)-carboxamide] | 30 nM | 1400 nM | –
5 | CC(C)(C)NC(=O)[C@@H]1C[C@H](Sc2ccccc2)CCN1C[C@@H](O)[C@H](Cc1ccccc1)NC(=O)OCc1ccccc1 [Table IV, entry 5, N-tert-butyl-1-{3(S)-(benzyloxycarbonylamino)-2(R)-hydroxy-4-phenylbutyl}-4(R)-(phenylthio)piperidine-2(S)-carboxamide] | – | 800 nM | –
6 | CC(C)(C)NC(=O)[C@@H]1C[C@H](Oc2ccccc2)CCN1C[C@@H](O)[C@H](Cc1ccccc1)NC(=O)OCc1ccccc1 [Table IV, entry 6, N-tert-butyl-1-{3(S)-(benzyloxycarbonylamino)-2(R)-hydroxy-4-phenylbutyl}-4(R)-phenoxypiperidine-2(S)-carboxamide] | 53 nM | – | –
7 | CC(C)(C)NC(=O)[C@@H]1C[C@H](C2CCCCC2)CCN1C[C@@H](O)[C@H](Cc1ccccc1)NC(=O)OCc1ccccc1 [Table IV, entry 7, N-tert-butyl-1-{3(S)-(benzyloxycarbonylamino)-2(R)-hydroxy-4-phenylbutyl}-4(R)-cylohexylpiperidine-2(S)-carboxamide] | 2100 nM | – | –
8 | CC(C)[C@H](NC(=O)OCc1ccccc1)C(=O)N[C@@H](Cc1ccccc1)[C@H](O)CN1CC[C@@H](Sc2ccccc2)C[C@H]1C(=O)NC(C)(C)C [Table IV, entry 8] | 3.9 nM | 13 nM | –
9 | CC(C)(C)NC(=O)[C@@H]1C[C@H](Sc2ccccc2)CCN1C[C@@H](O)[C@H](Cc1ccccc1)NC(=O)[C@H](CC(N)=O)NC(=O)OCc1ccccc1 [Table IV, entry 9, N-tert-butyl-1-{3(S)-{{N-(benzyloxycarbonyl)asparaginyl}amino}-2(R)-hydroxy-4-phenylbutyl}-4(R)-(phenylthio)piperidine-2(S)-carboxamide] | 4 nM | 43 nM | –
10 | CC(C)[C@H](NC(=O)OCc1ccccc1)C(=O)N[C@@H](Cc1ccccc1)[C@H](O)CN1CC[C@@H](c2ccccc2)C[C@H]1C(=O)NC(C)(C)C [Table IV, entry 10, N-tert-butyl-1-{3(S)-{{N-(benzyloxycarbonyl)valyl}amino}-2(R)-hydroxy-4-phenylbutyl}-4(R)-phenylpiperidine-2(S)-carboxamide] | 3.1 nM | 90 nM | –
11 | CC[C@H](C)[C@H](NC(=O)OCc1ccccc1)C(=O)N[C@@H](Cc1ccccc1)[C@H](O)CN1CC[C@@H](c2ccccc2)C[C@H]1C(=O)NC(C)(C)C [Table IV, entry 11, N-tert-butyl-1-{3(S)-{{N-(benzyloxycarbonyl)isoleucyl}amino}-2(R)-hydroxy-4-phenylbutyl}-4(R)-phenylpiperidine-2(S)-carboxamide] | 3.7 nM | 700 nM | –
12 | CC(C)[C@H](NC(=O)OCc1ccccc1)C(=O)N[C@@H](Cc1ccccc1)[C@H](O)CN1CC[C@@H](Sc2ccccn2)C[C@H]1C(=O)NC(C)(C)C [Table IV, entry 33, N-tert-butyl-1-{3(S)-{{N-(benzyloxycarbonyl)valyl}amino}-2(R)-hydroxy-4-phenylbutyl}-4(R)-(2-pyridinylthio)piperidine-2(S)-carboxamide] | 3.2 nM | – | –
13 | CC(C)[C@H](NC(=O)OCc1ccccc1)C(=O)N[C@@H](Cc1ccccc1)[C@H](O)CN1CC[C@@H](Sc2ccncc2)C[C@H]1C(=O)NC(C)(C)C [Table IV, entry 34, N-tert-butyl-1-{3(S)-{{N-(benzyloxycarbonyl)valyl}amino}-2(R)-hydroxy-4-phenylbutyl}-4(R)-(4-pyridinylthio)piperidine-2(S)-carboxamide] | 2.5 nM | – | –
14 | CC(C)(C)NC(=O)[C@@H]1C[C@H](Sc2ccncc2)CCN1C[C@@H](O)[C@H](Cc1ccccc1)NC(=O)COc1ccccc1 [Table VII, entry 3, N-tert-butyl-1-{3(S)-{{phenoxyacetyl}amino}-2(R)-hydroxy-4-phenylbutyl}-4(R)-(4-pyridinylthio)piperidine-2(S)-carboxamide] | – | – | 34 nM
15 | Cc1ccc(F)cc1C(=O)N[C@@H](Cc1ccccc1)[C@H](O)CN1CC[C@@H](Sc2ccncc2)C[C@H]1C(=O)NC(C)(C)C [Table VII, entry 9, N-tert-butyl-1-{3(S)-{{(5-fluoro-2-methylphenyl)carbonyl}amino}-2(R)-hydroxy-4-phenylbutyl}-4(R)-(4-pyridinylthio)piperidine-2(S)-carboxamide] | – | – | 6.8 nM
